Measured values as given in US20080182859A1 (Curis, Inc., priority 2006, published 2008).
Structures can show the parent of a compound that is named as a salt.

Key:
Type in all cases: cell-based
sonic hedgehog pathway [1] = assay: Hedgehog pathway Gli-luciferase reporter assay, TM3 cells; settings: TM3 mouse Leydig cells
How it was run: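 Luminescence read-out of gli-promoter luciferase in stably transfected cells; 11-point 1:3 dose curves, 24 h compound exposure in 0.5% FBS, ± octyl-modified Hh protein 1–5 ng/ml. AMAX as % of plate low/high controls; EC50 from curve; >20% AMAX counted active.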

sonic hedgehog pathway [2] = assay: Hedgehog pathway Gli-luciferase reporter assay, S12 cells; settings: S12 mouse embryonic mesenchymal cells
Text: Mouse (TM3: mouse Leydig cells; S12: mouse embryonic mesenchymal cells) and human (Daoy: human medulloblastoma cell; HepM: human embryonic palatal mesenchymal cell) cell lines are used to screen small molecules for their ability to modulate the activity of the sonic hedgehog pathway (Table 1, Table 2, and Table 3). Stable hedgehog pathway reporter cell lines are established by specific antibiotic selection following transfection of a reporter plasmid containing a luciferase gene located directly downstream from the gli promoter. Consequently, any observable changes in cellular luciferase activity may be attributed to changes in sonic hedgehog pathway activity in mouse and human cells, respectively, since gli is the major by-product of this pathway. To calculate activity, we generate an eleven point dose curve for each compound using 1:3 dilutions in 96 well assay plates. Each plate tested also contains low and high control to establish maximal pathway activation so to establish/compare a percentage activation of each tested compound (AMAX) on respective plates. Also we calculate EC50 values, or a concentration where the pathway will be exactly 50% activated, for each tested compound to determine potency. In these cell lines, compounds that register >20% AMAX values are considered active.
Stable hedgehog pathway reporter cell lines are established following specific antibiotic selection following transfection of a reporter plasmid In short, typically cells are plated in MicroTiter-plates at 10,000-20,000 cells per well, in growth media (containing 10%-20% FBS). After 48-72 hrs (HGL and DGL respectively) the media in the assay plates is switched to low-serum containing media (0.5% FBS). At that time compounds are added (at 1-5 μM) to the assay plates, in the presence or absence of hedgehog protein (octyl-modified version; 1-5 ng/ml). After another 24 hrs of incubation, the media from the assay plates is discarded and replaced with luciferase assay-mix. Subsequently, plates are incubated at RT for ˜15-30 mins and then read in a luminometer. [note: addition of the Hedgehog protein, although not critical, will sensitize the assay allowing the identification of weak actives].

sonic hedgehog pathway [3] = assay: Human hedgehog reporter assay HEPM-GliLuc (HGL); settings: HepM human embryonic palatal mesenchymal cells, Gli-luciferase reporter
How it was run: (§1)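 Agonist mode: cells carrying a luciferase gene downstream of the gli promoter received compound at 1–5 μM in 0.5% FBS for 24 h, optionally sensitised with 1–5 ng/ml octyl-modified hedgehog protein; luminescence gave % activation and EC50.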

sonic hedgehog pathway [4] = assay: Human hedgehog reporter assay Daoy-GliLuc (DGL); settings: Daoy human medulloblastoma cells, Gli-luciferase reporter
How it was run: as §1

[5] = read-out: Human Daoy (Gli-Luc) Avg. EC50

Measured: EC50

CN[C@H]1CC[C@@H](N(Cc2cc(-c3ccc(C(C)=O)cc3)ccc2OC)C(=O)c2sc3c(F)ccc(F)c3c2Cl)CC1 [Compound 332, 3-Chloro-4,7-difluoro-benzo[b]thiophene-2-carboxylic acid (4′-acetyl-4-methoxy-biphenyl-3-ylmethyl)-(4-methylamino-cyclohexyl)-amide hydrochloride]
< 50 nM: sonic hedgehog pathway [1] | sonic hedgehog pathway [2]; read-out: S12 Avg. EC50 | sonic hedgehog pathway [3] | sonic hedgehog pathway [4]; read-out: Daoy Avg. EC50

CN[C@H]1CC[C@@H](N(Cc2cc(-c3cccnc3)ccc2OC)C(=O)c2sc3c(F)ccc(F)c3c2Cl)CC1 [Compound 361, 3-Chloro-4,7-difluoro-benzo[b]thiophene-2-carboxylic acid (2-methoxy-5-pyridin-3-yl-benzyl)-(4-methylamino-cyclohexyl)-amide dihydrochloride]
< 50 nM: sonic hedgehog pathway [1] | sonic hedgehog pathway [2]; read-out: S12 Avg. EC50 | sonic hedgehog pathway [3] | sonic hedgehog pathway [4]; read-out: Daoy Avg. EC50

CN[C@H]1CC[C@@H](N(Cc2cc(-c3cccnc3)ccc2OC)C(=O)c2sc3cccc(F)c3c2Cl)CC1 [360 (R16), 3-Chloro-4-fluoro-benzo[b]thiophene-2-carboxylic acid (2-methoxy-5-pyridin-3-yl-benzyl)-(4-methylamino-cyclohexyl)-amide dihydrochloride]
< 50 nM: sonic hedgehog pathway [1] | sonic hedgehog pathway [2]; read-out: S12 Avg. EC50 | sonic hedgehog pathway [3] | sonic hedgehog pathway [4]; read-out: Daoy Avg. EC50

CN[C@H]1CC[C@@H](N(Cc2cc(-c3ccc(S(C)(=O)=O)cc3)ccc2OC)C(=O)c2sc3c(F)ccc(F)c3c2Cl)CC1 [Compound 335, 3-Chloro-4,7-difluoro-benzo[b]thiophene-2-carboxylic acid (4′-methanesulfonyl-4-methoxy-biphenyl-3-ylmethyl)-(4-methylamino-cyclohexyl)-amide hydrochloride]
< 50 nM: sonic hedgehog pathway [1] | sonic hedgehog pathway [2]; read-out: S12 Avg. EC50 | sonic hedgehog pathway [3] | sonic hedgehog pathway [4]; read-out: Daoy Avg. EC50

CN[C@H]1CC[C@@H](N(Cc2cc(-c3ccncc3)ccc2OC)C(=O)c2sc3cccc(F)c3c2Cl)CC1 [Compound 359, 3-Chloro-4-fluoro-benzo[b]thiophene-2-carboxylic acid (2-methoxy-5-pyridin-4-yl-benzyl)-(4-methylamino-cyclohexyl)-amide dihydrochloride]
< 50 nM: sonic hedgehog pathway [1] | sonic hedgehog pathway [2]; read-out: S12 Avg. EC50 | sonic hedgehog pathway [3] | sonic hedgehog pathway [4]; read-out: Daoy Avg. EC50

CN[C@H]1CC[C@@H](N(Cc2cc(-c3ccccn3)ccc2OC)C(=O)c2sc3c(F)ccc(F)c3c2Cl)CC1 [Compound 367, 3-Chloro-4,7-difluoro-benzo[b]thiophene-2-carboxylic acid (2-methoxy-5-pyridin-2-yl-benzyl)-(4-methylamino-cyclohexyl)-amide dihydrochloride]
< 50 nM: sonic hedgehog pathway [1] | sonic hedgehog pathway [2]; read-out: S12 Avg. EC50 | sonic hedgehog pathway [3] | sonic hedgehog pathway [4]; read-out: Daoy Avg. EC50

CN[C@H]1CC[C@@H](N(Cc2cc(-c3ccnc(N)c3)ccc2OC)C(=O)c2sc3c(F)ccc(F)c3c2Cl)CC1 [Compound 355]
< 50 nM: sonic hedgehog pathway [1] | sonic hedgehog pathway [2]; read-out: S12 Avg. EC50 | sonic hedgehog pathway [3]

CN[C@H]1CC[C@@H](N(Cc2cc(-c3ccc(N)nc3)ccc2OC)C(=O)c2sc3cccc(F)c3c2Cl)CC1 [362 (R13), 3-Chloro-4-fluoro-benzo[b]thiophene-2-carboxylic acid [5-(6-amino-pyridin-3-yl)-2-methoxy-benzyl]-(4-methylamino-cyclohexyl)-amide dihydrochloride]
< 50 nM: sonic hedgehog pathway [1] | sonic hedgehog pathway [2]; read-out: S12 Avg. EC50 | sonic hedgehog pathway [3] | sonic hedgehog pathway [4]; read-out: Daoy Avg. EC50

CN[C@H]1CC[C@@H](N(Cc2cc(-c3ccc(C(=O)N(C)C)cc3)ccc2OC)C(=O)c2sc3ccccc3c2Cl)CC1 [317 (R19)]
< 50 nM: sonic hedgehog pathway [1] | sonic hedgehog pathway [2]; read-out: S12 Avg. EC50 | sonic hedgehog pathway [3]

CN[C@H]1CC[C@@H](N(Cc2cc(-c3ccc(C(N)=O)cc3)ccc2OC)C(=O)c2sc3ccccc3c2Cl)CC1 [Compound 316, 3-Chloro-benzo[b]thiophene-2-carboxylic acid (4′-carbamoyl-4-methoxy-biphenyl-3-ylmethyl)-(4-methylamino-cyclohexyl)-amide hydrochloride]
< 50 nM: sonic hedgehog pathway [1] | sonic hedgehog pathway [2]; read-out: S12 Avg. EC50 | sonic hedgehog pathway [3]

CN[C@H]1CC[C@@H](N(Cc2cc(-c3ccncc3)ccc2O)C(=O)c2sc3c(F)ccc(F)c3c2Cl)CC1 [Compound 368, 3-Chloro-4,7-difluoro-benzo[b]thiophene-2-carboxylic acid (2-hydroxy-5-pyridin-4-yl-benzyl)-(4-methylamino-cyclohexyl)-amide dihydrochloride]
< 50 nM: sonic hedgehog pathway [2]; read-out: S12 Avg. EC50 | sonic hedgehog pathway [3] | sonic hedgehog pathway [4]; read-out: Daoy Avg. EC50

CN[C@H]1CC[C@@H](N(Cc2cc(-c3ccc(NS(C)(=O)=O)nc3)ccc2OC)C(=O)c2sc3c(F)ccc(F)c3c2Cl)CC1 [Compound R10, 3-Chloro-4,7-difluoro-benzo[b]thiophene-2-carboxylic acid [5-(6-methanesulfonylamino-pyridin-3-yl)-2-methoxy-benzyl]-(4-methylamino-cyclohexyl)-amide dihydrochloride]
< 50 nM: sonic hedgehog pathway [1] | sonic hedgehog pathway [2]; read-out: S12 Avg. EC50 | sonic hedgehog pathway [3]

CN[C@H]1CC[C@@H](N(Cc2cc(-c3ccc(S(N)(=O)=O)cc3)ccc2OC)C(=O)c2sc3c(F)ccc(F)c3c2Cl)CC1 [Compound 388, 3-Chloro-4,7-difluoro-benzo[b]thiophene-2-carboxylic acid (4-methoxy-4′-sulfamoyl-biphenyl-3-ylmethyl)-(4-methylamino-cyclohexyl)-amide hydrochloride]
< 50 nM: sonic hedgehog pathway [2]; read-out: Mouse S12 Avg. EC50 | sonic hedgehog pathway [4]; [5]

CNC1CCC(N(Cc2cc(-c3cccnc3F)ccc2OC)C(=O)c2sc3c(F)ccc(F)c3c2Cl)CC1 (stereo not shown) [Compound 378, 3-Chloro-4,7-difluoro-benzo[b]thiophene-2-carboxylic acid [5-(2-fluoro-pyridin-3-yl)-2-methoxy-benzyl]-(4-methylamino-cyclohexyl)-amide]
< 50 nM: sonic hedgehog pathway [2]; read-out: Mouse S12 Avg. EC50 | sonic hedgehog pathway [4]; [5]

CN[C@H]1CC[C@@H](N(Cc2cc(-c3ccc(CO)cc3)ccc2OC)C(=O)c2sc3ccccc3c2Cl)CC1 [Compound 329, 3-Chloro-benzo[b]thiophene-2-carboxylic acid (4′-hydroxymethyl-4-methoxy-biphenyl-3-ylmethyl)-(4-methylamino-cyclohexyl)-amide hydrochloride]
< 50 nM: sonic hedgehog pathway [1] | sonic hedgehog pathway [2]; read-out: S12 Avg. EC50 | sonic hedgehog pathway [3]

CNC1CCC(N(Cc2cc(-c3ccc(F)nc3)ccc2OC)C(=O)c2sc3c(F)ccc(F)c3c2Cl)CC1 (stereo not shown) [Compound 379, 3-Chloro-4,7-difluoro-benzo[b]thiophene-2-carboxylic acid [5-(6-fluoro-pyridin-3-yl)-2-methoxy-benzyl]-(4-methylamino-cyclohexyl)-amide]
< 50 nM: sonic hedgehog pathway [2]; read-out: Mouse S12 Avg. EC50 | sonic hedgehog pathway [4]; [5]

COc1ccc(-c2ccncc2F)cc1CN(C(=O)c1sc2c(F)ccc(F)c2c1Cl)[C@H]1CC[C@@H](N)CC1 [Compound 417]
< 50 nM: sonic hedgehog pathway [2]; read-out: S12 Avg. EC50 | sonic hedgehog pathway [4]; read-out: Daoy Avg. EC50

CN[C@H]1CC[C@@H](N(Cc2cc(-c3ccc(NS(C)(=O)=O)cc3)ccc2OC)C(=O)c2sc3c(F)ccc(F)c3c2Cl)CC1 [Compound 370, 3-Chloro-4,7-difluoro-benzo[b]thiophene-2-carboxylic acid (4′-methanesulfonylamino-4-methoxy-biphenyl-3-ylmethyl)-(4-methylamino-cyclohexyl)-amide hydrochloride]
< 50 nM: sonic hedgehog pathway [2]; read-out: Mouse S12 Avg. EC50 | sonic hedgehog pathway [4]; [5]

CN[C@H]1CC[C@@H](N(Cc2cc(-c3ccc(N)nc3)ccc2OC)C(=O)c2sc3ccccc3c2Cl)CC1 [Compound 319, 3-Chloro-benzo[b]thiophene-2-carboxylic acid [5-(6-amino-pyridin-3-yl)-2-methoxy-benzyl]-(4-methylamino-cyclohexyl)-amide dihydrochloride]
< 50 nM: sonic hedgehog pathway [1] | sonic hedgehog pathway [2]; read-out: S12 Avg. EC50 | sonic hedgehog pathway [3]

CNC1CCC(N(Cc2cc(-c3ccnc(F)c3)ccc2OC)C(=O)c2sc3cccc(F)c3c2Cl)CC1 (stereo not shown) [Compound 385, 3-Chloro-4-fluoro-benzo[b]thiophene-2-carboxylic acid [5-(2-fluoro-pyridin-4-yl)-2-methoxy-benzyl]-(4-methylamino-cyclohexyl)-amide]
< 50 nM: sonic hedgehog pathway [2]; read-out: Mouse S12 Avg. EC50 | sonic hedgehog pathway [4]; [5]
